This is an account of results in ChEMBL document CHEMBL5212743, “Selectivity Literature for EUbOPEN Chemogenomics Library wave 3” (2023).

The target of assay [1] is Serine/threonine-protein kinase 16 (Homo sapiens, UniProt O75716). Description: Selectivity interaction (KinomeScan (DiscoverX)) EUB0000138c STK16. The conditions noted are these: at 100 nM.
The target of a further assay is Aurora kinase A (Homo sapiens, UniProt O14965).
The target of assay [2] is Cyclin-dependent kinase 8 (Homo sapiens) (UniProt P49336). The settings on record: at 1 µM.
Cyclin-dependent kinase 8 (Homo sapiens), sequence (P49336 whole entry): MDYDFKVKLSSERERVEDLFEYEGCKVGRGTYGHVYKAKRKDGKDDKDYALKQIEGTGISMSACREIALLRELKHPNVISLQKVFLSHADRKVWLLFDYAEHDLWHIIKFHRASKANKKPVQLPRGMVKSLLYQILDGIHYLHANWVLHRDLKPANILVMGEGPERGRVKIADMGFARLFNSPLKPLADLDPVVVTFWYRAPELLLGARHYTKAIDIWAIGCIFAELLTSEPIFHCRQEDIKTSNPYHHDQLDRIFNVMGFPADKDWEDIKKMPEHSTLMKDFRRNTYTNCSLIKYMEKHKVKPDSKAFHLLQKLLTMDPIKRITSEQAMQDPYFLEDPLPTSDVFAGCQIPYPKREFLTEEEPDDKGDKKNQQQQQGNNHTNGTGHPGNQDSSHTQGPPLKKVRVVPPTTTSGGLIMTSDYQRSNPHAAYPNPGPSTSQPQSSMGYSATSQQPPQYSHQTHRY
The target in assay [3] is Mitogen-activated protein kinase kinase kinase kinase 5 (Homo sapiens) (UniProt Q9Y4K4). The conditions noted are these: at 1 µM.
Mitogen-activated protein kinase kinase kinase kinase 5 (Homo sapiens), sequence (Q9Y4K4 whole entry, looked up): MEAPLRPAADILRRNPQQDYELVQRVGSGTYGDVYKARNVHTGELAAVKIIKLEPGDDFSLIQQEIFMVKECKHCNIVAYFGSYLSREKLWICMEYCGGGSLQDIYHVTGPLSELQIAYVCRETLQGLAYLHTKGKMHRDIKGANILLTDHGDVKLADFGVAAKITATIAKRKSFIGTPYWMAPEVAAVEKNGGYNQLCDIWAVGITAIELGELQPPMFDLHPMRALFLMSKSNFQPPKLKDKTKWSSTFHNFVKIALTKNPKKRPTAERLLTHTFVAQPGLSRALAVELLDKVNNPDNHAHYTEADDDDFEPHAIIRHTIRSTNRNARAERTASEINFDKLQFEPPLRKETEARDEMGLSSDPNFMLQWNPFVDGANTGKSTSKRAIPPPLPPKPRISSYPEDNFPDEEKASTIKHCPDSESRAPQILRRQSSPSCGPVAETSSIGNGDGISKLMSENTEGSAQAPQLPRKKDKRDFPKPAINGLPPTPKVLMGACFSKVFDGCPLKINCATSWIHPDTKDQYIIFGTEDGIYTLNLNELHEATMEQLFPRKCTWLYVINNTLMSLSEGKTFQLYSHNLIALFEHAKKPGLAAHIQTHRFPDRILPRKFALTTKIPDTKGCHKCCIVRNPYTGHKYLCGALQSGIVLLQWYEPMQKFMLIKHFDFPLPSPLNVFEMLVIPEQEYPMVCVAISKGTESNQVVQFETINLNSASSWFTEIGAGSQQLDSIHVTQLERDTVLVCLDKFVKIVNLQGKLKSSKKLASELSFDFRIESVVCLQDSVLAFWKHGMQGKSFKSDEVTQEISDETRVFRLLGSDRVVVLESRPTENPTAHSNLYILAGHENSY
Assay [4] addresses Macrophage colony-stimulating factor 1 receptor (Homo sapiens) (UniProt P07333). The settings on record: at 1 µM.
For assay [5], the target named is T1, Ephrin type-B receptor 6 (Homo sapiens) (UniProt O15197).
T1 sequence (whole entry): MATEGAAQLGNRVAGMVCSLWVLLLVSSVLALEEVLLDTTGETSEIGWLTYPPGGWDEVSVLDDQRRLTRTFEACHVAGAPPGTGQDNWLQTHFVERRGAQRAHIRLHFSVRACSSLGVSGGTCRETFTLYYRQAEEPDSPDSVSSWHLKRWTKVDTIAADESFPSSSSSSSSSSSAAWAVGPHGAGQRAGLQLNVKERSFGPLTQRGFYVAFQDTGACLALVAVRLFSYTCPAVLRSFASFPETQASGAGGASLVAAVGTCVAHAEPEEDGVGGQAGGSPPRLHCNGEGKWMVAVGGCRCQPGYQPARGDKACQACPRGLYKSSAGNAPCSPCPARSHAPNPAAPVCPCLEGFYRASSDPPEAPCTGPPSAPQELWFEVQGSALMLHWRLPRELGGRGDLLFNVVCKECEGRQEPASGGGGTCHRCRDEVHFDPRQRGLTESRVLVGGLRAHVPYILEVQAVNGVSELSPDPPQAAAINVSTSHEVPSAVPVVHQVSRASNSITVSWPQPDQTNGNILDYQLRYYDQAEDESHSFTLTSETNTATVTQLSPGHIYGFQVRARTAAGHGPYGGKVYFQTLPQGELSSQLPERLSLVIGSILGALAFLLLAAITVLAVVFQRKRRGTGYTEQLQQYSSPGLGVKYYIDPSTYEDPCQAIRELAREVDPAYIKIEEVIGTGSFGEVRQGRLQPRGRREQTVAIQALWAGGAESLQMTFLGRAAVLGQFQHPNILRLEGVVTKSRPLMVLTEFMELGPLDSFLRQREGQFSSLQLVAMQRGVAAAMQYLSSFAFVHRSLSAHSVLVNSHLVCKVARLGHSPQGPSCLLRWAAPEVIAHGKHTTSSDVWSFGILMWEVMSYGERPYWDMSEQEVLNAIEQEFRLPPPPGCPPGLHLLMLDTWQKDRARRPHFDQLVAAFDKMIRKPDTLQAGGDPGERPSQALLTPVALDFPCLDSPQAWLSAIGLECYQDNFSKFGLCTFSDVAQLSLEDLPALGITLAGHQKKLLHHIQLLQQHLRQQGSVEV
Description: Selectivity interaction (KinomeScan (DiscoverX)) EUB0000698a EPHB6. The conditions noted are these: at 10 µM.

Assay [6] deals with T2, Phosphatidylinositol 5-phosphate 4-kinase type-2 beta (Homo sapiens) (UniProt P78356).
T2 sequence (whole entry): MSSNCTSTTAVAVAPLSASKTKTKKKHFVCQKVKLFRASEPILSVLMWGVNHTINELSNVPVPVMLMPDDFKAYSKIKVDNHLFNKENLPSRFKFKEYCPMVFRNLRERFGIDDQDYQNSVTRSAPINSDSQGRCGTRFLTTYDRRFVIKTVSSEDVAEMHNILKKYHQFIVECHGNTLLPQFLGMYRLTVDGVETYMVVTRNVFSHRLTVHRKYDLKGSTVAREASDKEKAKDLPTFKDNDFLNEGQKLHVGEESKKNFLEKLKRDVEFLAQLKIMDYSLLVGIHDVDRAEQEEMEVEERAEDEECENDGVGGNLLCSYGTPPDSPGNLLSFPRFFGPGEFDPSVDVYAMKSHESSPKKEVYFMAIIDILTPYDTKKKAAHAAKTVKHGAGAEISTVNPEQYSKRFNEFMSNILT
Nature of the assay: Selectivity interaction (KinomeScan (DiscoverX)) EUB0000698a PIP4K2B. The conditions noted are these: at 10 µM.

The target in assay [7] is Rho-associated protein kinase 1 (Homo sapiens) (UniProt Q13464). Nature of the assay: Selectivity interaction (KinomeScan (DiscoverX)) EUB0000698a ROCK1. The conditions noted are these: at 10 µM.
The target of assay [8] is Mitogen-activated protein kinase kinase kinase 19 (Homo sapiens, UniProt Q56UN5). Nature of the assay: Selectivity interaction (KinomeScan (DiscoverX, competition-binding assay)) EUB0000305b MAP3K19.
Assay [9] addresses Bone morphogenetic protein receptor type-1B (Homo sapiens) (UniProt O00238). Nature of the assay: Selectivity interaction (KinomeScan (DiscoverX)) EUB0000702a BMPR1B. The settings on record: at 1 µM.
Assay [10] addresses Mitogen-activated protein kinase kinase kinase 3 (Homo sapiens) (UniProt Q99759). Description: Selectivity interaction (KinomeScan (DiscoverX)) EUB0000178b MAP3K3. The settings on record: at 1 µM.
In assay [11] the target is Serine/threonine-protein kinase 24 (Homo sapiens) (UniProt Q9Y6E0). Description: Selectivity interaction (KinomeScan (DiscoverX)) EUB0000178b STK24. The conditions noted are these: at 1 µM.
Serine/threonine-protein kinase 24 (Homo sapiens), sequence (Q9Y6E0 whole entry, looked up): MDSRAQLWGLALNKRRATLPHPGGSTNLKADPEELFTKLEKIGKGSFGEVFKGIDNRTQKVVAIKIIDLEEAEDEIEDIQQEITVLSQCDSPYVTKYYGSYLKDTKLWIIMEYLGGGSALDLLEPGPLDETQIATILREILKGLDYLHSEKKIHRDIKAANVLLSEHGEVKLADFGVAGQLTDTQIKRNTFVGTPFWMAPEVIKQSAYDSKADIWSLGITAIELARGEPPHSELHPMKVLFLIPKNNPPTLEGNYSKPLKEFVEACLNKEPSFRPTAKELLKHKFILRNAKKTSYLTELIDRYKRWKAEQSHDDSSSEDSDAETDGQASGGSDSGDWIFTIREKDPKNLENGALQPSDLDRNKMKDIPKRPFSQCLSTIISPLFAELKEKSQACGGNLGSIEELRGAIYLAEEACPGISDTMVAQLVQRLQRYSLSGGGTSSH
For assay [12], the target named is Serine/threonine-protein kinase TAO1 (Homo sapiens) (UniProt Q7L7X3). Description: Selectivity interaction (KinomeScan (DiscoverX)) EUB0000178b TAOK1. The conditions noted are these: at 1 µM.
The target in assay [13] is Tyrosine-protein kinase JAK1 (Homo sapiens, UniProt P23458). Description: Selectivity interaction (KinomeScan (DiscoverX)) EUB0000178b JAK1@kinase 2. The conditions noted are these: at 1 µM.
Assay [14] addresses Non-receptor tyrosine-protein kinase TYK2 (Homo sapiens, UniProt P29597). Description: Selectivity interaction (KinomeScan (DiscoverX, competition-binding assay)) EUB0000178b TYK2.
The target of assay [15] is Serine/threonine-protein kinase PLK3 (Homo sapiens, UniProt Q9H4B4). Description: Selectivity interaction (KinomeScan (DiscoverX)) EUB0000169b PLK3. The conditions noted are these: at 1 µM.
Serine/threonine-protein kinase PLK3, sequence (Q9H4B4 whole entry, looked up): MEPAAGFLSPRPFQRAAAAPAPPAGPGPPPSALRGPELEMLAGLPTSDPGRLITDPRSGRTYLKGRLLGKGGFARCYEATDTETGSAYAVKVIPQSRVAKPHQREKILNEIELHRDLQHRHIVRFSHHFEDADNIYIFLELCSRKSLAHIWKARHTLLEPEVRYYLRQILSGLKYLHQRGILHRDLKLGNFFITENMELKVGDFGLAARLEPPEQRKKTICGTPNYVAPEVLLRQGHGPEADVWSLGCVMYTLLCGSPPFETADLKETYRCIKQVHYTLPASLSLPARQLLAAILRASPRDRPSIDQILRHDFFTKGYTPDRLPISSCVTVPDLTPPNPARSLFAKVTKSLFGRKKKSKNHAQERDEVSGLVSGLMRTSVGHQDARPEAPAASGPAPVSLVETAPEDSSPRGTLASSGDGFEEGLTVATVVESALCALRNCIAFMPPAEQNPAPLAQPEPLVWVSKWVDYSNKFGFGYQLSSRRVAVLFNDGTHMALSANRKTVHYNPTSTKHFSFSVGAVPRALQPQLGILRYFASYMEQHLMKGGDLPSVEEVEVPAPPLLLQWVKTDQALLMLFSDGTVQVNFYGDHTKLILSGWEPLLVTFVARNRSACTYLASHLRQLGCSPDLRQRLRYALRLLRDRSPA
Assay [16] addresses Dual specificity mitogen-activated protein kinase kinase 1 (Homo sapiens, UniProt Q02750). Description: Selectivity interaction (Kinase panel (University of Dundee)) EUB0000169b MAP2K1. The settings on record: at 10 µM.

Serine/threonine-protein kinase 16, sequence (O75716 whole entry): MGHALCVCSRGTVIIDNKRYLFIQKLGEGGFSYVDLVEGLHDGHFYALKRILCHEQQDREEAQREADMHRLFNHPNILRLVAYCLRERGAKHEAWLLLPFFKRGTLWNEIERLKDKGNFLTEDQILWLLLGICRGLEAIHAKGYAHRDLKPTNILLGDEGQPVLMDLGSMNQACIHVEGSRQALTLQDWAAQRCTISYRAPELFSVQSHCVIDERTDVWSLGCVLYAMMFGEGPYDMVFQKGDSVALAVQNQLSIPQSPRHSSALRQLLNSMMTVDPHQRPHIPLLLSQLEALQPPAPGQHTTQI
Aurora kinase A, sequence (O14965 whole entry): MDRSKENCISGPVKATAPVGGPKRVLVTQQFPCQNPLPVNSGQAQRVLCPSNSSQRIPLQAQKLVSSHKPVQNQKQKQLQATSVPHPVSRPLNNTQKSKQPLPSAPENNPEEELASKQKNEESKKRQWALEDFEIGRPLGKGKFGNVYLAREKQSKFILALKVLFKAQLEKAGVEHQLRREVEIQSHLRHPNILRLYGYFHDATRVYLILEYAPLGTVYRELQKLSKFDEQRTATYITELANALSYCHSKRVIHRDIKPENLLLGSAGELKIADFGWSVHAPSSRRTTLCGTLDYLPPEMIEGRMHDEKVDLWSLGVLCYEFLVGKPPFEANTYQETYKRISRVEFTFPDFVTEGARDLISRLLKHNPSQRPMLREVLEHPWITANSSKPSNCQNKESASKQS
Bone morphogenetic protein receptor type-1B (Homo sapiens), sequence (O00238 whole entry): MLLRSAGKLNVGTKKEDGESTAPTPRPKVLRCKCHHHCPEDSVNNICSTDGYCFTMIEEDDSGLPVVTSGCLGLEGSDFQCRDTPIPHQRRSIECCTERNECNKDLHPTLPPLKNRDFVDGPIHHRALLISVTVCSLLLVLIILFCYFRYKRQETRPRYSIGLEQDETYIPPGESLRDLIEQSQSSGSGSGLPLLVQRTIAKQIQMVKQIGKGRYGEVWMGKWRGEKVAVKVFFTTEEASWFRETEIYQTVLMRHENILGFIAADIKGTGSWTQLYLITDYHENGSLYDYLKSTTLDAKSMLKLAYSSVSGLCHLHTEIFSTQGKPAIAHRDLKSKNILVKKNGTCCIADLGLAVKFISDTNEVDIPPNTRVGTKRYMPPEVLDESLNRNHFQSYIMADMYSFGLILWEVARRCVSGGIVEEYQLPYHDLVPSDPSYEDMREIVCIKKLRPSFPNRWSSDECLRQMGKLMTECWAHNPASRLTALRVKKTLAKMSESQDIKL
Macrophage colony-stimulating factor 1 receptor (Homo sapiens), sequence (P07333 whole entry): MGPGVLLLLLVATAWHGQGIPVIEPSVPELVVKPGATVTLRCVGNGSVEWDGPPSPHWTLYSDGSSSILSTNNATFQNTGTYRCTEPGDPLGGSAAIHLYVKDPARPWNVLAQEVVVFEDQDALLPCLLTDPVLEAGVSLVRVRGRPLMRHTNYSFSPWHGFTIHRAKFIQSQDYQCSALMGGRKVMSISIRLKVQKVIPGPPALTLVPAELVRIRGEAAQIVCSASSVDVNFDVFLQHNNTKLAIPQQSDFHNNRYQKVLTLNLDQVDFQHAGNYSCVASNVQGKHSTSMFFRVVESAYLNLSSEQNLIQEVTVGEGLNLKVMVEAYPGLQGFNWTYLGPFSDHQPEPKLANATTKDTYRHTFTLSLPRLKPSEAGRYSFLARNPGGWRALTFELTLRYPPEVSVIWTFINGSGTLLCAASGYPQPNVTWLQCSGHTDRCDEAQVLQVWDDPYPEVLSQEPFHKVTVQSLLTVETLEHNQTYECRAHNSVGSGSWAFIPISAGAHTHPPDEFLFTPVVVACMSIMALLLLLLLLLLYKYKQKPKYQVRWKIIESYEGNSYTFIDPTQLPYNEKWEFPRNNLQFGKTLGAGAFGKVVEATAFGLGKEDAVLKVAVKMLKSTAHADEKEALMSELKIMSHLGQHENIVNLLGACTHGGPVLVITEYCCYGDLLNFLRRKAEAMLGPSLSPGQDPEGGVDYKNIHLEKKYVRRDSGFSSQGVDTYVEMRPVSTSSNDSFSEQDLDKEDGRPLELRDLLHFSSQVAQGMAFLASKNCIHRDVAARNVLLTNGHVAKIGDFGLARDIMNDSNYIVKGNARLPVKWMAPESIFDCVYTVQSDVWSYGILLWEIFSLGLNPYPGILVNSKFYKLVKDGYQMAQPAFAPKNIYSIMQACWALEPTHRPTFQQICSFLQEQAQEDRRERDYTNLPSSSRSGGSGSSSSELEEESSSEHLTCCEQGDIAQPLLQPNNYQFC
Dual specificity mitogen-activated protein kinase kinase 1, sequence (Q02750 whole entry): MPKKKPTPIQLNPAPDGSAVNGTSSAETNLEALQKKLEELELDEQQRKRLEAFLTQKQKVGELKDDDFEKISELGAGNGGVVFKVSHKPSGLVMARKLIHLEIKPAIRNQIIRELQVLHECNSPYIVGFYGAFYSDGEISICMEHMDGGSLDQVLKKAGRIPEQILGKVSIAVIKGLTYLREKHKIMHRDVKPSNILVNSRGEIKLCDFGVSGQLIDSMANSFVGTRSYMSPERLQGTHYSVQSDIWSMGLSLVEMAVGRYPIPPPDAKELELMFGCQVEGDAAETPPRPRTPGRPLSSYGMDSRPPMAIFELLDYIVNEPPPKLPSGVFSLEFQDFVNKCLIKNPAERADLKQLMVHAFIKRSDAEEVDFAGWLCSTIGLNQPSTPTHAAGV

Take `CNC(=O)c1ccc(Nc2ncc(C(F)(F)F)c(NCc3nccnc3N(C)S(C)(=O)=O)n2)cc1` [DEFACTINIB]: the % of control in [1] is 7.7%.
In the case of `CCOc1cn(-c2ccc(F)cc2C)nc1C(=O)Nc1ccc(Oc2ccnc3cc(OC)c(OC)cc23)c(F)c1`, half-maximal inhibition on Aurora kinase A (IC50) was put at 36 nM. The % of control in [2], in [3] and in assay [4] was less than 10% in each case.
For the compound `COc1cc2ncn(-c3cc(OCc4ccccc4C(F)(F)F)c(C(N)=O)s3)c2cc1OC` [GW843682X], the % of control is 9.9% in assay [5], 6.6% in assay [6] and 4.7% in assay [7].
`C[C@H](c1ccnc(Nc2nc3ccc(-c4cc(N(C)C)ncn4)cc3[nH]2)c1)N1CCN(C(=O)CC(F)(F)F)CC1` [BAY-985]: the affinity in assay [8], expressed as Kd, was 9.6 nM.
As for `CN(c1ccnc(CNc2nc(Nc3ccc4c(c3)CC(=O)N4)ncc2C(F)(F)F)n1)S(C)(=O)=O` [PF-00911705], the % of control in [9] turned out to be 3.6%.
Regarding `CN1C(=O)c2sccc2N(C)c2nc(Nc3ccc(S(N)(=O)=O)cc3)ncc21`, the % of control was 2% in [10], 0.9% in assay [11], 2.6% in assay [12] and 4.3% in [13]. In assay [14], binding was put at a Kd of 610 nM.
Take `CC[C@@H]1C(=O)N(C)c2cnc(Nc3ccc(C(=O)NC4CCN(C)CC4)cc3OC)nc2N1C1CCCC1`: the % of control in assay [15] worked out at 0.5%; in [16], 115%.
